Data published in patent US6399355B1 (priority 1995, dated 2002).

Test system: HIV-1
Type: cell-based
Settings: for Inhibition Ratio (Number of viral particles/ml in control)/(Number with drug added): 1 μg/ml test compound mixed with HIV-1 (10^5 infectious units) at 37° C. for 2 hours, cells cultured six days; for viral inactivation (in words): at these concentrations (1 μg/ml)
Procedure: HIV-1 (10^5 infectious units) was mixed with 1 μg/ml of test compound at 37° C. for 2 hours. Test cells were innoculated with the mixture for two hours. The cells were then washed three times with PBS and cultured for six days.

Substance | Inhibition Ratio (Number of viral particles/ml in control)/(Number with drug added) | viral inactivation (in words)
Dextran sulfate | 1 | do not show significant activation
pentosan sulfate [Pentosan Sultate] | 1 | do not show significant activation
